Results published in the NIST ThermoML archive (doi:10.1021/je3004645).

Details: for electrical conductivity / mass density / viscosity: 101.33 kPa, Liquid; for electrical conductivity: Alternating current cell with electrodes; for mass density: Pycnometric method; for viscosity: Capillary tube (Ostwald / Ubbelohde) method; for Triple point temperature / Glass transition temperature: DTA

CC[n+]1ccc(C)cc1.O=S(=O)([N-]S(=O)(=O)C(F)(F)F)C(F)(F)F
Details	Glass transition temperature [°C]	Triple point temperature [K]	electrical conductivity [S/m]	mass density [kg/m3]	viscosity [mPa·s]
–	-74.5	–	–	–	–
283.15 K	–	–	0.424	1505.2	–
288.15 K	–	–	0.525	1501	–
293.15 K	–	–	0.638	1496.1	–
298.15 K	–	–	0.763	1492	32.75
303.15 K	–	–	0.901	1487.7	27.31
308.15 K	–	–	1.05	1483	23.1
313.15 K	–	–	1.21	1478.3	19.69
318.15 K	–	–	1.38	1473.4	16.95
323.15 K	–	–	1.55	1468.8	14.66
328.15 K	–	–	1.75	1464.4	12.85
333.15 K	–	–	1.96	1459.9	11.34
338.15 K	–	–	2.17	1455.1	10.1
343.15 K	–	–	–	–	9.07
348.15 K	–	–	–	–	8.19
353.15 K	–	–	–	–	7.43
358.15 K	–	–	–	–	6.76
363.15 K	–	–	–	–	6.19
Crystal 1	–	291	–	–	–
Crystal 2	–	278.2	–	–	–

CCCC[n+]1ccc(C)cc1.O=S(=O)([N-]S(=O)(=O)C(F)(F)F)C(F)(F)F
Details	Glass transition temperature [°C]	Triple point temperature [K]	electrical conductivity [S/m]	mass density [kg/m3]	viscosity [mPa·s]
–	-78	–	–	–	–
278.15 K	–	–	0.124	–	–
283.15 K	–	–	0.166	1432.8	–
288.15 K	–	–	0.215	1428.4	–
293.15 K	–	–	0.273	1423.4	–
298.15 K	–	–	0.341	1418.7	55.14
303.15 K	–	–	0.419	1414	44.2
308.15 K	–	–	0.509	1409.3	35.85
313.15 K	–	–	0.6	1404.7	29.61
318.15 K	–	–	0.702	1400.2	24.77
323.15 K	–	–	0.817	1395.8	20.85
328.15 K	–	–	0.941	1391.3	17.86
333.15 K	–	–	1.07	1386.9	15.37
338.15 K	–	–	1.21	1382.5	13.42
343.15 K	–	–	–	–	11.65
348.15 K	–	–	–	–	10.15
353.15 K	–	–	–	–	8.89
358.15 K	–	–	–	–	7.94
Crystal 1	–	292.4	–	–	–
Crystal 2	–	242.2	–	–	–
Crystal 3	–	235.8	–	–	–
